Measurements: patent US9493524B2, “Methods for treatment of stroke or cerebrovascular accidents using an ETB receptor agonist” (MIDWESTERN UNIVERSITY, priority 2007, dated 2016)

What was measured:
Type in all cases: in vivo, Sprague-Dawley rats
[1] = test system: urethane anesthetized rat; test: Cerebral blood perfusion by Laser Doppler Flowmetry
Description: (§1) Male Sprague-Dawley rats weighing 323±4 grams (g) were anesthetized with urethane (ethyl carbamate, Sigma Aldrich, St. Louis, Mo.) dissolved in isotonic saline (0.9% NaCl, Hospira, Inc., Lake Forest, Ill.). The rats were administered a dose of 0.15 g per 100 g body weight via intraperitoneal (i.p.) injection.
Cerebral Perfusion: A burr hole was drilled into the rat skull about 2 millimeters (mm) to the left of midline. Cerebrovascular perfusion was measured via a fiber optic probe (PF407) applied to the surface of the rat brain. The probe was connected to a Periflux PF2b 4000 Laser Doppler Flowmetry unit (Perimed, Stockholm, Sweden).
(§2) The rats were randomly selected for various studies. Following surgery the rats were allowed to stabilize for 30 minutes and a 15 minutes baseline recording of all parameters (blood pressure, heart rate, cerebral blood flow, and renal blood flow) was obtained prior to the administration of the pretreatment followed by IRL-1620 (Suc-[Glu 9, Ala 11,15], American Peptide Co, Inc., Sunnyville, Calif.) or ET-1 (Ala 1,3,11,15, RBI Sigma, Natick, Mass.). BQ-788, a selective endothelin B antagonist, is the sodium salt of N-cis-2,6-dimethylpiperidinocarbonyl-L-gamma-methylleucyl-D-1-methoxycarbonyl triptophanyl-DNIe (see Proc. Natl. Acad. Sci. USA, 91, pp. 4892-4896 (1994)) BMS is BMS 182, 874, which is a selective endothelin A antagonist having a structure
(§3) Group 1: Animals (n=4) were pretreated with saline 15 minutes (min) prior to administration of IRL-1620 (5 μg/kg, i.v.).
(§4) Group 2: Animals (n=4) were pretreated with BMS (5 mg/kg, i.v.) 15 min prior to administration of IRL-1620 (5 μg/kg, i.v.).
(§5) Group 3: Animals (n=4) were pretreated with BMS (15 mg/kg, i.v.) 15 min prior to administration of IRL-1620 (5 μg/kg, i.v.).
(§6) Group 4: Animals (n=4) were pretreated with BQ788 (1 μg/kg, i.v.) 15 min prior to administration of IRL-1620 (5 μg/kg, i.v.).
(§7) Group 1: Animals (n=4) were pretreated with saline 15 min prior to administration of ET-1 (0.75 μg/kg, i.v.).
(§8) Group 2: Animals (n=4) were pretreated with BMS (5 mg/kg, i.v.) 15 min prior to administration of ET-1 (0.75 μg/kg, i.v.).
(§9) Group 3: Animals (n=4) were pretreated with BMS (15 mg/kg, i.v.) 15 min prior to administration of ET-1 (0.75 μg/kg, i.v.).
(§10) Group 4: Animals (n=4) were pretreated with BQ788 (1 μg/kg, i.v.) 15 min prior to administration of ET-1 (0.75 μg/kg, i.v.).
(§11) Blood pressure, heart rate, cerebral blood perfusion, and renal blood perfusion all were recorded for 2 hours following the final injection. Blood gases were analyzed prior to administration of any drugs, and at 60 and 120 min following administration of IRL-1620 or ET-1. At the end of each experiment, the animals were euthanized with an overdose of urethane i.v. In the figures, all data values are presented as mean±SEM. One-sample t-tests and one-way ANOVAs were used to test the differences within and between the groups. A P value of P<0.05 was considered significant.

[2] = test system: urethane anesthetized rat; test: Renal blood perfusion by Laser Doppler Flowmetry; settings: i.v.
Description: as §1
Renal Perfusion: The right kidney was dissected retroperitoneally. Renal perfusion was measured via a fiber optic probe (PF408) applied to the surface of the rat kidney. The probe was connected to a Periflux PF2b 4000 Laser Doppler Flowmetry unit (Perimed, Stockholm, Sweden).
as §2, §3, §4, §5, §6, §7, §8, §9, §10, §11

[3] = test system: urethane anesthetized rat; test: Blood pressure / mean arterial pressure recording; settings: i.v.; for decrease in mean arterial pressure: IRL-1620 5.0 μg/kg; for decrease in mean arterial pressure / increase in mean arterial pressure (subsequent hypertension): FIG. 11
Description: as §1
(§12) Blood Pressure and Heart Rate: The femoral vein and artery were cannulated. The arterial cannula was connected to a Gould P23 ID pressure transducer for recording the blood pressure on a Grass P7D polygraph through a 7PI preamplifier. The heart rate was recorded through a 7P4B Grass tachograph, triggered from blood pressure signals. Drugs were administered via the venous cannula.
as §2, §3, §4, §5, §6, §7, §8, §9, §10, §11

[4] = test system: urethane anesthetized rat; test: Heart rate recording; settings: IRL-1620 5 μg/kg; for heart rate: 1 μg/kg BQ788 pretreatment, mean±SEM, in bpm (unit assumed)
Description: as §1, §12, §2, §3, §4, §5
Group 4: Animals (n=4) were pretreated with BQ788 (1 μg/kg, i.v.) 15 min prior to administration of IRL-1620 (5 μg/kg, i.v.). […]
as §11

[5] = test system: urethane anesthetized rat; test: Arterial blood gas analysis; settings: IRL-1620 5 μg/kg, i.v., ET-1 0.75 μg/kg
Description: as §1
Blood Gas Analysis: Arterial blood gases were monitored to determine the effects on pH, pCO2, and pO2. Blood was drawn from the arteriole cannula and analyzed using a GEM Premier 3000 unit (Instrument Laboratory, Lexington, Mass.).
as §11

[6] = time 0 min (prior to any drugs)

Q: Which results are given for “ET-1: endothelin-1 (ET-1), a 21-amino acid peptide (ASASSLMDKEAVYFAHLDIIW)”?
A: change in cerebral blood flow ([1]; ET-1 0.75 μg/kg, i.v., FIG. 5): no significant change; persistence of the decrease in renal blood flow ([2]; IRL-1620 5 μg/kg, ET-1 0.75 μg/kg, FIG. 8): approximately 15 minutes; decrease in renal blood flow ([2]; at 1 minute, IRL-1620 5 μg/kg, ET-1 0.75 μg/kg, FIG. 8): 40.27%; decrease in renal blood flow ([2]; at 5 minutes, IRL-1620 5 μg/kg, ET-1 0.75 μg/kg, FIG. 8): 50.10%; decrease in renal blood flow ([2]; at 10 minutes, IRL-1620 5 μg/kg, ET-1 0.75 μg/kg, FIG. 8): 26.33%; decrease in mean arterial pressure ([3]; at 0.2 minute, ET-1 0.75 μg/kg): 43.16%; decrease in mean arterial pressure ([3]; at 0.5 minute, ET-1 0.75 μg/kg): 37.80%; decrease in mean arterial pressure ([3]; at 1 minute, ET-1 0.75 μg/kg): 19.30%; increase in mean arterial pressure (subsequent hypertension) ([3]; at 5 minutes, ET-1 0.75 μg/kg): 12.72%; increase in mean arterial pressure (subsequent hypertension) ([3]; at 10 minutes, ET-1 0.75 μg/kg): 25.56%; increase in mean arterial pressure (subsequent hypertension) ([3]; at 15 minutes, ET-1 0.75 μg/kg): 28.49%; effect on heart rate (Table 1) ([4]; i.v. after saline, ET-1 with or without pretreatment): No significant alteration; effect on arterial blood gases (text to Table 2) [5]: Neither IRL-1620 nor ET-1 significantly affected blood gases; arterial blood pCO2 [5, 6]: 34 ± 3; arterial blood pH [5, 6]: 7.32 ± 0.01; arterial blood pO2 [5, 6]: 118 ± 4; arterial blood pCO2 ([5]; time 60 min): 40 ± 4; arterial blood pH ([5]; time 60 min): 7.29 ± 0.01; arterial blood pO2 ([5]; time 60 min): 110 ± 2; arterial blood pCO2 ([5]; time 120 min): 38 ± 4; arterial blood pH ([5]; time 120 min): 7.27 ± 0.01; arterial blood pO2 ([5]; time 120 min): 116 ± 5

Q: `CCCC[C@@H](NC(=O)[C@@H](Cc1cn(C(=O)OC)c2ccccc12)NC(=O)[C@H](CC(C)(C)C)NC(=O)N1[C@H](C)CCC[C@@H]1C)C(=O)O` [BQ788, N-cis-2,6-dimethylpiperidinocarbonyl-L-gamma-methylleucyl-D-1-methoxycarbonyl triptophanyl-DNIe] was tested. Which “effect of pretreatment on the effect of ET-1 on cerebral blood flow” value ([1]; BMS 5 and 15 mg/kg, i.v., BQ788 1 μg/kg, ET-1 0.75 μg/kg, FIG. 7) did it give?
A: no significant change

Q: What about the “effect of pretreatment on the effect of IRL-1620 on cerebral blood flow” value ([1]; BQ788 1 μg/kg, i.v. 15 min prior to IRL-1620 5 μg/kg, FIG. 6) of the same molecule?
A: effectively blocked

Q: What about the “effect of pretreatment on the effect of ET-1 on renal blood flow” value ([2]; BMS 5 and 15 mg/kg, BQ788 1 μg/kg, ET-1 0.75 μg/kg, FIG. 10) of the same molecule?
A: No pretreatment significantly altered

Q: What about the “effect of pretreatment on the effect of IRL-1620 on renal blood flow” value ([2]; BMS 5 and 15 mg/kg, BQ788 1 μg/kg, IRL-1620 5 μg/kg, FIG. 9) of the same molecule?
A: effectively blocked

Q: What about the “effect of pretreatment on the effect of ET-1 on mean arterial pressure” value ([3]; BMS 5 and 15 mg/kg, BQ788 1 μg/kg, ET-1 0.75 μg/kg, FIG. 13) of the same molecule?
A: failed to alter

Q: And the “effect of pretreatment on the effect of IRL-1620 on mean arterial pressure” value ([3]; BMS 5 and 15 mg/kg, BQ788 1 μg/kg, IRL-1620 5 μg/kg, FIG. 12)?
A: effectively blocked

Q: What about the heart rate ([4]; i.v., time 0 min) of the same molecule?
A: 344 ± 5

Q: What about the heart rate ([4]; i.v., time 1 min) of the same molecule?
A: 350 ± 6

Q: And the heart rate ([4]; i.v., time 5 min)?
A: 345 ± 4

Q: What about the heart rate ([4]; i.v., time 10 min) of the same molecule?
A: 345 ± 4

Q: What about the heart rate ([4]; i.v., time 15 min) of the same molecule?
A: 347 ± 3

Q: And the heart rate ([4]; i.v., time 30 min)?
A: 347 ± 4

Q: What about the heart rate ([4]; i.v., time 45 min) of the same molecule?
A: 350 ± 6

Q: What about the heart rate ([4]; i.v., time 60 min) of the same molecule?
A: 351 ± 9

Q: What about the heart rate ([4]; i.v., time 90 min) of the same molecule?
A: 351 ± 13

Q: What about the heart rate ([4]; i.v., time 120 min) of the same molecule?
A: 353 ± 13

Q: And the “effect of pretreatment on the effect of IRL-1620 on heart rate (Table 1)” value ([4]; BMS 5 and 15 mg/kg, BQ788, i.v.)?
A: effectively blocked
